According to patent US8088763B2 (priority 2004, dated 2012):

Experiments:
[1] = target: T1, 5HT-uptake (Rattus norvegicus, UniProt P31652); test: biochemical; settings: for inhibition at 10 µM: read-out: 5HT-uptake [10 μM], % inhibition
T1 construct: synaptosomes were freshly isolated from areas of rats' brains

[2] = target: NA-uptake (Rattus norvegicus, UniProt Q63380); test: biochemical; settings: for inhibition at 10 µM: read-out: NA-uptake [10 μM], % inhibition
Chain of NA-uptake (Q63380 1-617): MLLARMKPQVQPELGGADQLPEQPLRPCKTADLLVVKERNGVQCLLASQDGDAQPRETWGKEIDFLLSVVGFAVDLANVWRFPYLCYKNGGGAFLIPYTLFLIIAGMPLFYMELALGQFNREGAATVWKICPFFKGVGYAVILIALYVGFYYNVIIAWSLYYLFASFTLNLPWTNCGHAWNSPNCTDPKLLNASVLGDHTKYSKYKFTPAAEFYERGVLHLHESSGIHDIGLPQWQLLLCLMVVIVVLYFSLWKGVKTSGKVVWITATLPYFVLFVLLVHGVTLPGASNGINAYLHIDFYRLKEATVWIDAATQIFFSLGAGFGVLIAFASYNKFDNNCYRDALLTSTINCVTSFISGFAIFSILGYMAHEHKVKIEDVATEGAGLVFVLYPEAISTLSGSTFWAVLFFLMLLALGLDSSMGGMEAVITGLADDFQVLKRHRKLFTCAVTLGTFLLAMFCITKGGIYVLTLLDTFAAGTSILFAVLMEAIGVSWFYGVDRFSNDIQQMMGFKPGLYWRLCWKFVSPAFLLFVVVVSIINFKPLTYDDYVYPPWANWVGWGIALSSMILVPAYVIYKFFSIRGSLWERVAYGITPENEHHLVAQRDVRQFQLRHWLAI

T1 sequence (P31652 whole entry): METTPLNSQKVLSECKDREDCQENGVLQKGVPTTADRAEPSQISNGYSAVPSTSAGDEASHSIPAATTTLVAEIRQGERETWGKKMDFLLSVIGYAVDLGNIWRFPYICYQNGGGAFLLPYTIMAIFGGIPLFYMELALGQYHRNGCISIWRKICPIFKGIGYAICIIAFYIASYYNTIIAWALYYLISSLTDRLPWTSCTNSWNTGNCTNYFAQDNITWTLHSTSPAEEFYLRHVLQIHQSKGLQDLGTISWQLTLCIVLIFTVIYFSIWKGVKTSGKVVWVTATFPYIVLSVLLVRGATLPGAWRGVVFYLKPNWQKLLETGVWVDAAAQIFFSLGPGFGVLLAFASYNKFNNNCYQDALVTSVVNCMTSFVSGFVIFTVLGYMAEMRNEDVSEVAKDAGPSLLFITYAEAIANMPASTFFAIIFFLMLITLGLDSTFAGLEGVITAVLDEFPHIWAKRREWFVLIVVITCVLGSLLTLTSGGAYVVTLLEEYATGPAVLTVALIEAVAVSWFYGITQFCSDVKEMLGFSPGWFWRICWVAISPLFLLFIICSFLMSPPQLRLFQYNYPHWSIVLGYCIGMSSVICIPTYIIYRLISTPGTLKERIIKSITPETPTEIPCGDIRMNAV

SMILES | inhibition at 10 µM [1] [%] | inhibition at 10 µM [2] [%] | 5HT-uptake [10 μM], % inhibition [1] [%] | NA-uptake [10 μM], % inhibition [2] [%]
Cc1ccc(CC2(N(C)C)CCC(NC(=O)CCC(=O)NC3CCN(Cc4c(Cl)cccc4Cl)C3)CC2)cc1 (stereo not drawn) [Example 1, N-[1-(2,6-dichloro-benzyl)-pyrrolidin-3-yl]-N′-[4-dimethylamino-4-(4-methyl-benzyl)-cyclohexyl]-succinamide] | 93 | 71 |  | 
CN(C)C1(Cc2cccc(Cl)c2)CCC(NC(=O)CCC(=O)NC2CCOC2=O)CC1 (stereo not drawn) [Example 2, N-[4-(3-chloro-benzyl)-4-dimethylamino-cyclohexyl]-N′-(2-oxo-tetrahydro-furan-3-yl)-succinamide] | 95 | 87 |  | 
CN(C)C1(Cc2ccc(Cl)cc2)CCC(NC(=O)CCC(=O)NCCC(c2ccccc2)c2ccccc2)CC1 (stereo not drawn) [Example 3, N-[4-(4-chloro-benzyl)-4-dimethylamino-cyclohexyl]-N′-(3,3-diphenyl-propyl)-succinamide] | 94 | 89 |  | 
COc1cc(CN2CCN(C(=O)CCC(=O)NC3CCC(Cc4ccc(C)cc4)(N(C)C)CC3)CC2)cc2c1OCO2 (stereo not drawn) [Example 4, N-[4-dimethylamino-4-(4-methyl-benzyl)-cyclohexyl]-4-[4-(7-methoxy-benzo[1,3]dioxol-5-ylmethyl)-piperazin-1-yl]-4-oxo-butyramide] | 92 | 89 |  | 
CN(C)C1(Cc2ccc(Cl)cc2)CCC(NC(=O)CCC(=O)N2CC=CCC2)CC1 (stereo not drawn) [Example 5, N-[4-(4-chloro-benzyl)-4-dimethylamino-cyclohexyl]-4-(3,6-dihydro-2H-pyridin-1-yl)-4-oxo-butyramide] | 93 | 80 |  | 
Cc1ccc(CC2(N(C)C)CCC(NC(=O)CCC(=O)N3CCN(c4cccc(C)c4)CC3)CC2)cc1 (stereo not drawn) [Example 6, N-[4-dimethylamino-4-(4-methyl-benzyl)-cyclohexyl]-4-oxo-4-(4-m-tolyl-piperazin-1-yl)-butyramide] | 96 | 91 |  | 
CCOC(=O)C(C)NC(=O)CCC(=O)NC1CCC(Cc2ccc(Cl)cc2)(N(C)C)CC1 (stereo not drawn) [Example 7, 2-{3-[4-(4-chloro-benzyl)-4-dimethylamino-cyclohexylcarbamoyl]-propionylamino}-propanoic acid ethylester] | 93 | 91 |  | 
CN(C)C1(Cc2cccc(Cl)c2)CCC(NC(=O)CCC(=O)N2CCc3[nH]c4ccc(F)cc4c3C2)CC1 (stereo not drawn) [Example 8, N-[4-(3-chloro-benzyl)-4-dimethylamino-cyclohexyl]-4-(8-fluoro-1,3,4,5-tetrahydro-pyrido[4,3-b]indol-2-yl)-4-oxo-butyramide] | 92 | 85 |  | 
CCOC(=O)CCNC(=O)CCC(=O)NC1CCC(Cc2ccc(C)cc2)(N(C)C)CC1 (stereo not drawn) [Example 9, 3-{3-[4-dimethylamino-4-(4-methyl-benzyl)-cyclohexylcarbamoyl]-propionylamino}-propanoic acid ethylester] | 93 | 91 |  | 
Cc1ccc(CC2(N(C)C)CCC(NC(=O)CCC(=O)N3CCN(C(=O)c4cnc(C)cn4)CC3)CC2)cc1 (stereo not drawn) [Example 10, N-[4-dimethylamino-4-(4-methyl-benzyl)-cyclohexyl]-4-[4-(5-methyl-pyrazin-2-carbonyl)-piperazin-1-yl]-4-oxo-butyramide] | 92 | 78 |  | 
Cc1ccc(CC2(N(C)C)CCC(NC(=O)CCC(=O)N(C)CCNC(=O)C(F)(F)F)CC2)cc1 (stereo not drawn) [Example 11, N-[4-dimethylamino-4-(4-methyl-benzyl)-cyclohexyl]-N′-methyl-N′-[2-(2,2,2-trifluoro-acetylamino)-ethyl]-succinamide] | 92 | 77 |  | 
CN(C)C1(Cc2cccc(Cl)c2)CCC(NC(=O)CCC(=O)NCCc2ccccn2)CC1 (stereo not drawn) [Example 12, N-[4-(3-chloro-benzyl)-4-dimethylamino-cyclohexyl]-N′-(2-pyridin-2-yl-ethyl)-succinamide] | 92 | 95 |  | 
CN(C)C1(Cc2ccc(Cl)cc2)CCC(NC(=O)CCC(=O)N2CCSCC2)CC1 (stereo not drawn) [Example 13, N-[4-(4-chloro-benzyl)-4-dimethylamino-cyclohexyl]-4-oxo-4-thiomorpholin-4-yl-butyramide] | 92 | 72 |  | 
Cc1cnc(C(=O)N2CCN(C(=O)CCC(=O)NC3CCC(Cc4ccc(Cl)cc4)(N(C)C)CC3)CC2)cn1 (stereo not drawn) [Example 14, N-[4-(4-chloro-benzyl)-4-dimethylamino-cyclohexyl]-4-[4-(5-methyl-pyrazin-2-carbonyl)-piperazin-1-yl]-4-oxo-butyramide] | 95 | 78 |  | 
CCOc1ccc(N2CCN(C(=O)CCC(=O)NC3CCC(Cc4ccc(Cl)cc4)(N(C)C)CC3)CC2)cc1 (stereo not drawn) [Example 16, N-[4-(4-chloro-benzyl)-4-dimethylamino-cyclohexyl]-4-[4-(4-ethoxy-phenyl)-piperazin-1-yl]-4-oxo-butyramide] | 97 | 86 |  | 
C=CCN(C)C(=O)CCC(=O)NC1CCC(Cc2ccc(Cl)cc2)(N(C)C)CC1 (stereo not drawn) [Example 17, N-allyl-N′-[4-(4-chloro-benzyl)-4-dimethylamino-cyclohexyl]-N-methyl-succinamide] | 93 | 82 |  | 
COc1ccc(OC)c(CN2CCN(C(=O)CCCC(=O)NC3CCC(Cc4ccccc4)(N(C)C)CC3)CC2)c1 (stereo not drawn) [Example 18, 5-[4-(2,5-dimethoxy-benzyl)-piperazin-1-yl]-5-oxo-valeric acid (4-benzyl-4-dimethylamino-cyclohexyl)-amide] | 94 | 84 |  | 
Cc1ccc(CC2(N(C)C)CCC(NC(=O)CCC(=O)N3CC=CCC3)CC2)cc1 (stereo not drawn) [Example 19, 4-(3,6-dihydro-2H-pyridin-1-yl)-N-[4-dimethylamino-4-(4-methyl-benzyl)-cyclohexyl]-4-oxo-butyramide] | 93 | 74 |  | 
Cc1cccc(CC2(N(C)C)CCC(NC(=O)CCC(=O)N3CCC(C)CC3)CC2)c1 (stereo not drawn) [Example 20, N-[4-dimethylamino-4-(3-methyl-benzyl)-cyclohexyl]-4-(4-methyl-piperidin-1-yl)-4-oxo-butyramide] | 92 | 90 |  | 
Cc1ccc(CC2(N(C)C)CCC(NC(=O)CCC(=O)N3CCN(c4ccccn4)CC3)CC2)cc1 (stereo not drawn) [Example 21, N-[4-dimethylamino-4-(4-methyl-benzyl)-cyclohexyl]-4-oxo-4-(4-pyridin-2-yl-piperazin-1-yl)-butyramide] | 95 | 83 |  | 
Cc1cccc(CC2(N(C)C)CCC(NC(=O)CCC(=O)N(C)CC(=O)OCc3ccccc3)CC2)c1 (stereo not drawn) [Example 22, ({3-[4-dimethylainino-4-(3-methyl-benzyl)-cyclohexylcarbamoyl]-propionyl}-methyl-amino)-acetic acid benzyl ester] |  |  | 95 | 93
Cc1cccc(CC2(N(C)C)CCC(NC(=O)CCC(=O)N3CCN(Cc4c(Cl)cccc4Cl)CC3)CC2)c1 (stereo not drawn) [Example 23, 4-[4-(2,6-dichloro-benzyl)-piperazin-1-yl]-N-[4-dimethylamino-4-(3-methyl-benzyl)-cyclohexyl]-4-oxo-butyramide] | 92 | 92 |  | 
CN(CC(=O)OC(C)(C)C)C(=O)CCCC(=O)NC1CCC(Cc2ccccc2)(N(C)C)CC1 (stereo not drawn) [Example 24, {[4-(4-benzyl-4-dimethylamino-cyclohexylcarbamoyl)-butyryl]-methyl-amino}-acetic acid tert butyl ester] | 92 | 91 |  | 
COc1ccc(F)c(CN2CCN(C(=O)CCCC(=O)NC3CCC(Cc4ccccc4)(N(C)C)CC3)CC2)c1 (stereo not drawn) [Example 25, 5-[4-(2-fluoro-5-methoxy-benzyl)-piperazin-1-yl]-5-oxo-valeric acid (4-benzyl-4-dimethylamino-cyclohexyl)-amide] | 97 | 95 |  | 
COCCCNC(=O)CCC(=O)NC1CCC(Cc2ccc(Cl)cc2)(N(C)C)CC1 (stereo not drawn) [Example 26, N-[4-(4-chloro-benzyl)-4-dimethylamino-cyclohexyl]-N′-(3-methoxy-propyl)-succinamide] | 93 | 79 |  | 
CC(=O)c1ccc(N2CCN(C(=O)CCC(=O)NC3CCC(Cc4ccc(C)cc4)(N(C)C)CC3)CC2)cc1 (stereo not drawn) [Example 27, 4-[4-(4-Acetyl-phenyl)-piperazin-1-yl]-N-[4-dimethylamino-4-(4-methyl-benzyl)-cyclohexyl]-4-oxo-butyramide] | 95 | 92 |  | 
Cc1ccc(CC2(N(C)C)CCC(NC(=O)CCC(=O)N3CCN(C(=O)OC(C)(C)C)CC3)CC2)cc1 (stereo not drawn) [Example 28, 4-{3-[4-dimethylamino-4-(4-methyl-benzyl)-cyclohexylcarbamoyl]-propionyl}-piperazin-1-carboxylic acid-tert-butylester] | 92 | 81 |  | 
CN(C)C1(Cc2cccc(Cl)c2)CCC(NC(=O)CCC(=O)NCC2CCCO2)CC1 (stereo not drawn) [Example 29, N-[4-(3-chloro-benzyl)-4-dimethylamino-cyclohexyl]-N′-(tetrahydro-furan-2-ylmethyl)-succinamide] | 94 | 91 |  | 
CCOC(=O)C(C)NC(=O)CCC(=O)NC1CCC(Cc2cccc(Cl)c2)(N(C)C)CC1 (stereo not drawn) [Example 30, 2-{3-[4-(3-chloro-benzyl)-4-dimethylamino-cyclohexylcarbamoyl]-propionylamino}-propanoic acid ethylester] | 93 | 96 |  | 
COC(=O)C(Cc1ccc(Cl)cc1)NC(=O)CCC(=O)NC1CCC(Cc2ccc(C)cc2)(N(C)C)CC1 (stereo not drawn) [Example 32, 3-(4-chloro-phenyl)-2-{3-[4-dimethylamino-4-(4-methyl-benzyl)-cyclohexylcarbamoyl]-propionylamino}-propanoic acid methylester] | 99 | 97 |  | 
